Test results reported in patent publication US8148100B2, “Mina53 assays” (ISIS Innovation Limited, priority 2005, dated 2012).

Columns and labels:
Mina53(A26-V465) [1] = biological target: T1, Mina53(A26-V465) (Homo sapiens, UniProt Q8IUF8, A386T); experiment: [14C] labelled 2-OG decarboxylation assay (uncoupled 2-OG turnover, 14CO2 release); assay type: biochemical; conditions: for inhibition of uncoupled 2-OG turnover by small molecules (in words): final concentration of 1 mM; for 2OG turnover: truncated Mina53 A26-V465 with Fe(II) and ascorbate, 16 nm 2-OG initially present, 37° C., 20 minutes
T1 construct: A N-terminal truncation of Mina53 A26-V465 cloned into pNIC28-Bsa4 was supplied by the Structural Genomics Consortium Oxford; His-tag (polyhistidine, TEV-cleavable, from pNIC28-Bsa4) (N, cleaved yes); made in house; host or cells: E. coli BL21(DE3)
Protocol: Once purified full-length His-Mina53 had been obtained it was tested for 2-OG oxygenase activity. A standard assay for this family of enzymes involves the use of [^14C] labelled 2-OG co-substrate. Upon reaction, the ^14C label is released as 14CO2 gas (old FIG. 2).
The ^14CO2 gas is then trapped using a strong base and quantified by liquid scintillation. The level of uncoupled turnover of 2-OG oxygenases can be increased by the use of a reducing agent, e.g. ascorbate. Many other assays for 2-OG oxygenases are well known, e.g. those based on oxygen consumption, succinate production or oxidation of the “prime substrate” (McNeill et al (2005) Anal. Biochem. 336, 125-31; Sabourin & Bieber (1982) J. Biol. Chem. 257, 7460-7; and Cunliffe et al. (1986) Biochem. J. 240, 617-9).
As noted above, many of the enzymes in the family catalyse the decarboxylation of 2-OG in the absence of a suitable prime substrate, albeit at a reduced rate. This activity is sometimes termed as uncoupled turnover. The protocol used for the 2-OG assay decarboxylation is based on the method used to measure [^14CO2] release by α-ketoisocaproate oxygenase (Sabourin & Bieber (1982) J. Biol. Chem. 257, 7460-7). Standard assay conditions consisted of a total volume of 100 μl, 50 mM Tris-HCl pH 7.5, 4 mM ascorbate, 160 μM 2OG (5% 1-[^14C]), 80 μM FeSO4.6H2O, 0.48 mg·ml^−1 catalase, 10 μM Mina53. Four stocks were made: (a) Mina53 (b) Fe(II) (c) ascorbate and, (d) all other reagents. Assays were started by mixing components (a) to (d). A tube containing 200 μl hyamine hydroxide was added and the vial sealed. The assays were incubated at 37° C. for 20 minutes then quenched with methanol (200 μl). Reaction tubes were then left on ice for 30 mins to collect [^14CO2] gas, before the hyamine hydroxide was removed and treated with scintillant solution for counting (Beckman, LS6500). Assays were performed in triplicate unless otherwise stated. When potential small molecule inhibitors were added, they were mixed to stock (d) to a final concentration of 1 mM in Tris 50 mM, pH 7.9 buffer. To investigate inhibition of Mina53 by metals other than Fe(II), NiCl2 and ZnCl2 were added separately to the assay mixture to a final concentration of 80 μM.
Using this [^14C] labelled 2-OG assay (16 nm of 2-OG was initially present in the assay mixture), the level of uncoupled turnover for Mina53 was measured under standard catalytic conditions (16 nm of 2-OG was initially present in the assay mixture), in the absence of Fe(II), in the absence of ascorbate and in the presence on N-oxalylglycine (NOG) a ubiquitous inhibitor for the 2-OG dependent non-haem Fe(II) oxygenases^16.

Mina53(A26-V465) [2] = biological target: T1, Mina53(A26-V465); experiment: as above; assay type: biochemical; conditions: His-Mina53, absence of prime substrate
[3] = final assay concentration of 80 μM

T1 sequence (Q8IUF8 26-465 A386T): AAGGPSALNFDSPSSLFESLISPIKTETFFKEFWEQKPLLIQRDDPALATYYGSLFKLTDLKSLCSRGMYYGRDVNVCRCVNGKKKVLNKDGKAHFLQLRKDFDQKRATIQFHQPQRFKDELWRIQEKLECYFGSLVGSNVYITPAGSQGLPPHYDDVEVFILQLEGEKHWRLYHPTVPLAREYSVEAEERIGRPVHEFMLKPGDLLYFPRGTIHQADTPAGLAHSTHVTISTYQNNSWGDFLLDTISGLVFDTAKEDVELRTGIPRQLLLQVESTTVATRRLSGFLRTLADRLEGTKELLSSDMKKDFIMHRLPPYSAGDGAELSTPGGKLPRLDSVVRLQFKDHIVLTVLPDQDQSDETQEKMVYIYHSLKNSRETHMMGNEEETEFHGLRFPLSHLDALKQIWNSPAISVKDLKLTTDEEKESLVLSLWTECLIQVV

Row | inhibition of uncoupled 2-OG turnover by small molecules (in words) (Mina53(A26-V465) [1]) | 2OG turnover (Mina53(A26-V465) [1]; small molecule added at 1 mM) [nm] | decarboxylation of 2-OG by His-Mina53 in the presence of inhibitor (in words) (Mina53(A26-V465) [2]) | relative inhibitory potency, Ni versus Zn (in words) (Mina53(A26-V465) [1]; [3]) | Compound | inhibition of Mina53 mediated oxidation of 2OG by metals other than Fe(II) (in words) (Mina53(A26-V465) [1]; [3]) | 2OG turnover (Mina53(A26-V465) [1]; metal salt added at 80 μM) [nm]
1 | did not significantly reduce it | 3.86 ± 0.05 |  |  | O=C(O)C(=O)NC(Cc1ccccc1)C(=O)O [NOFD, N-oxalyl D-phenylalaninie] |  | 
2 | inhibit uncoupled 2-OG turnover | 0.47 ± 0.12 | inhibited |  | O=C(O)CNC(=O)C(=O)O [NOG, N-oxalylglycine] |  | 
3 | did not significantly reduce it | 3.18 ± 0.03 |  |  | O=C(O)CNC(=O)c1nc(Cl)c2ccccc2c1O [BB231] |  | 

Further lines, the compound ahead of its results:

Row | Compound | inhibition of uncoupled 2-OG turnover by small molecules (in words) (Mina53(A26-V465) [1]) | 2OG turnover (Mina53(A26-V465) [1]; small molecule added at 1 mM) [nm] | decarboxylation of 2-OG by His-Mina53 in the presence of inhibitor (in words) (Mina53(A26-V465) [2]) | relative inhibitory potency, Ni versus Zn (in words) (Mina53(A26-V465) [1]; [3]) | inhibition of Mina53 mediated oxidation of 2OG by metals other than Fe(II) (in words) (Mina53(A26-V465) [1]; [3]) | 2OG turnover (Mina53(A26-V465) [1]; metal salt added at 80 μM) [nm]
4 | fumarate | inhibit uncoupled 2-OG turnover | 0.58 ± 0.09 |  |  |  | 
5 | CCC(=O)C1C(=O)CC(C(=O)O)CC1=O (stereo not shown) [Prohexadione, prohexadione] | inhibit uncoupled 2-OG turnover | 0.17 ± 0.12 |  |  |  | 
6 | [Cl][Ni][Cl] [NiCl2] |  |  |  |  | inhibit 2OG turnover | 2 ± 0.23
7 | [Cl-].[Cl-].[Zn+2] [ZnCl2] |  |  |  | more potent inhibitor | inhibit 2OG turnover | 0.93 ± 0.17
